Laboratory results taken from patent publication US20190350940A1, “PLATINUM COMPOUNDS, COMPOSITIONS, AND USES THEREOF” (priority 2015, published 2019).
Where two headings read alike, the source gives them in different places.

Tests used:
[1] = test system: MIA Paca-2 human pancreatic adenocarcinoma; assay: MIA Paca-2 pancreatic xenograft model; assay type: in vivo, mouse
[2] = test system: BxPC-3 human pancreatic adenocarcinoma; assay: BxPC-3 pancreatic xenograft model; assay type: in vivo, mouse; settings: cisplatin 4 mg/kg
Protocol: The effect of Compound 8 on TGI was evaluated in the BxPC-3 human pancreatic adenocarcinoma nude mouse (female Crl:NU(NCr)-Foxn1^nu) xenograft model.

rat = assay: Single IV administration in the rat, kidney findings; assay type: in vivo; settings: single dose of cisplatin 7 mg/kg
rats = settings: 50 rats treated for 3 weeks, 3×1 mg/kg body weight/week; cited from earlier work
patients = settings: cited from earlier work
NCI-H520 human NSCLC = assay: NCI-H520 lung xenograft model; assay type: in vivo, mouse
Protocol: The effect of Compound 8 also was evaluated in the NCI-H520 human NSCLC nude mouse (female CrTac:NCr-Foxn1^nu) xenograft model. […] All treatments were statistically significant compared to vehicle (p<0.0001).

[3] = test system: A2780 human ovarian cancer; assay: A2780 ovarian xenograft model; assay type: in vivo, mouse
Protocol: The effect of Compound 8 on tumor growth inhibition (TGI) was evaluated in the A2780 human ovarian cancer nude mouse (female Crl:NU(NCr)-Foxn1^nu) xenograft model.

Calu-6 human NSCLC = assay: Calu-6 lung xenograft model; assay type: in vivo, mouse
Protocol: The effect of Compound 8 was evaluated in the Calu-6 human NSCLC nude mouse (female Crl:NU(NCr)-Foxn1^nu) xenograft model.

O=C1[O][Pt]2([NH][C@@H]3CCCC[C@H]3[NH]2)[O]C1=O [Oxaliplatin]
MTV (mean tumor volume) ([1]; Oxaliplatin 7 mg/kg (17.9 uM/kg) IV q3, 7 doses, Day 18): 1251 mm^3
TGI (tumor growth inhibition) versus vehicle ([1]; Oxaliplatin 7 mg/kg IV q3, 7 doses, Day 18): 61%
Treatment-related effects ([1]; oxaliplatin 7 mg/kg, all animals, Day 18): pale and dehydrated and having petechiae
Mean maximal BW loss ([1]; oxaliplatin 7 mg/kg, printed 'Day 5.3'): 8.1%

N.N.[Cl][Pt][Cl] [Cisplatin]
Treatment-related side effects [2]: No treatment-related side effects
Kidney findings (rat): high incidence of moderate acute tubular necrosis of the kidney
Deaths secondary to malignancy (rats): 13
Response rate in most advanced cancers (patients; first-line setting): ~50%
Hypersensitivity reactions, patients treated (patients; human, in vivo): up to 20%
Response rate in most advanced cancers (patients; second- or third-line setting): 15%
MTV (mean tumor volume) (NCI-H520 human NSCLC; Cisplatin 3 mg/kg (10 uM/kg) IV twice weekly, 5 doses, Day 31): 823 mm^3
Mean maximal BW loss (NCI-H520 human NSCLC; cisplatin 3 mg/kg, on Day 4): 0.43%
MTV (mean tumor volume) ([3]; Cisplatin 4 mg/kg (13.3 uM/kg) IV every 3 days, 6 doses): 1052 mm^3
TGI (tumor growth inhibition) versus vehicle ([3]; Cisplatin 4 mg/kg IV every 3 days, 6 doses): 55%
Mean maximal BW loss ([3]; cisplatin 4 mg/kg, Day 5): 2.3%
MTV (mean tumor volume) (Calu-6 human NSCLC; Cisplatin 3 mg/kg (10 uM/kg) IV twice weekly for 2 weeks, Day 33): 462 mm^3
TGI (tumor growth inhibition) versus vehicle (Calu-6 human NSCLC; Cisplatin 3 mg/kg IV twice weekly for 2 weeks, Day 33): 74%
Median TTE (time to endpoint) (Calu-6 human NSCLC; Cisplatin 3 mg/kg IV twice weekly for 2 weeks, Day 54): 52.5 days
BW loss (Calu-6 human NSCLC; cisplatin 3 mg/kg): no BW loss
T-C (Calu-6 human NSCLC; cisplatin 3 mg/kg): 16.7 days
Treatment-related side effects (Calu-6 human NSCLC; cisplatin 3 mg/kg, one animal): severe petechiae on Day 4
